Reference: the supplement of paper PMC10307832

Columns and labels:
Experiment in all cases: relative viability (nuclei count vs DMSO), 5 days (fraction); higher = more cells survive
Pemetrexed + Trametinib = compound: Nc1nc2[nH]cc(CCc3ccc(C(=O)N[C@@H](CCC(=O)O)C(=O)O)cc3)c2c(=O)[nH]1 [Pemetrexed] + CC(=O)Nc1cccc(-n2c(=O)n(C3CC3)c(=O)c3c(Nc4ccc(I)cc4F)n(C)c(=O)c(C)c32)c1 [Trametinib] (partner 0.02 µM)
Method in brief: (§1)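 Lung cancer cell lines in 1536-well plates got either a single drug or a fixed anchor-drug dose together with five library-drug doses (not always all listed) in √10 steps, by pin tool, on the day after seeding. Nuclei were counted after 5 days, and relative viability is the treated-to-vehicle ratio of nuclei counts. Values are medians of duplicate plates.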

Idelalisib + Dasatinib = compound: CC[C@H](Nc1ncnc2[nH]cnc12)c1nc2cccc(F)c2c(=O)n1-c1ccccc1 [Idelalisib] + Cc1nc(Nc2ncc(C(=O)Nc3c(C)cccc3Cl)s2)cc(N2CCN(CCO)CC2)n1 [Dasatinib] (partner 0.075 µM)
Method in brief: as §1

Idelalisib + Decitabine = compound: CC[C@H](Nc1ncnc2[nH]cnc12)c1nc2cccc(F)c2c(=O)n1-c1ccccc1 [Idelalisib] + Nc1ncn([C@H]2C[C@H](O)[C@@H](CO)O2)c(=O)n1 [Decitabine] (partner 2 µM)
Method in brief: as §1

Pemetrexed + Tozasertib = compound: Nc1nc2[nH]cc(CCc3ccc(C(=O)N[C@@H](CCC(=O)O)C(=O)O)cc3)c2c(=O)[nH]1 [Pemetrexed] + Cc1cc(Nc2cc(N3CCN(C)CC3)nc(Sc3ccc(NC(=O)C4CC4)cc3)n2)n[nH]1 [Tozasertib] (partner 0.1 µM)
Method in brief: as §1

Cell Line	relative viability (Pemetrexed + Trametinib; first compound 0.002 µM)	relative viability (Pemetrexed + Trametinib; first compound 0.006325 µM)	relative viability (Pemetrexed + Trametinib; first compound 0.02 µM)	relative viability (Pemetrexed + Trametinib; first compound 0.06325 µM)	relative viability (Pemetrexed + Trametinib; first compound 0.2 µM)	relative viability (Idelalisib + Dasatinib; first compound 0.04 µM)	relative viability (Idelalisib + Dasatinib; first compound 0.1265 µM)	relative viability (Idelalisib + Dasatinib; first compound 0.4 µM)	relative viability (Idelalisib + Dasatinib; first compound 1.265 µM)	relative viability (Idelalisib + Dasatinib; first compound 4 µM)	relative viability (Idelalisib + Decitabine; first compound 0.04 µM)	relative viability (Idelalisib + Decitabine; first compound 0.1265 µM)	relative viability (Idelalisib + Decitabine; first compound 0.4 µM)	relative viability (Idelalisib + Decitabine; first compound 1.265 µM)	relative viability (Idelalisib + Decitabine; first compound 4 µM)	relative viability (Pemetrexed + Tozasertib; first compound 0.002 µM)	relative viability (Pemetrexed + Tozasertib; first compound 0.006325 µM)	relative viability (Pemetrexed + Tozasertib; first compound 0.02 µM)	relative viability (Pemetrexed + Tozasertib; first compound 0.06325 µM)	relative viability (Pemetrexed + Tozasertib; first compound 0.2 µM)
NCI-H2405	0.735	0.589	0.66	0.582	0.653	0.25	0.201	0.199	0.245	0.217	0.751	0.752	0.644	0.838	0.691	0.75	0.738	0.832	0.778	0.694
LCLC-97TM1	0.21	0.189	0.179	0.211	0.184	0.938	0.846	0.807	0.946	0.88	0.254	0.223	0.269	0.262	0.226	0.184	0.245	0.315	0.254	0.284
NCI-H727	0.346	0.395	0.464	0.357	0.404	0.461	0.397	–	0.353	0.386	1.03	0.747	0.867	0.881	0.889	0.6	0.584	0.498	0.738	0.61
NCI-H522	0.971	0.722	0.739	0.784	0.73	1.08	0.814	0.894	0.895	0.791	0.665	0.67	0.645	0.631	0.698	0.544	0.518	0.582	0.56	0.593
LK-2	0.649	0.568	0.697	0.737	0.659	0.277	0.294	–	0.273	0.283	0.357	0.239	–	0.407	0.343	0.191	0.148	0.176	0.197	0.165
PC-3 [JPC-3]	0.748	0.666	0.683	0.657	0.725	0.814	0.973	0.908	0.879	0.892	0.917	0.89	0.763	0.819	0.772	0.82	0.939	0.895	0.878	0.861
NCI-H596	0.886	0.869	0.663	0.643	0.5	0.586	0.631	0.493	0.575	0.549	0.994	0.962	1.06	1.15	0.887	0.873	0.858	0.887	0.754	0.491
NCI-H460	–	0.0664	0.241	0.0967	0.0451	0.571	0.535	0.405	0.5	0.428	0.382	0.562	0.448	0.466	0.503	0.108	0.48	0.511	0.272	0.0837
NCI-H647	0.52	0.436	0.478	0.406	0.17	0.194	0.203	–	0.173	0.127	0.332	0.408	0.3	0.318	0.193	0.309	0.246	0.297	0.208	0.128
NCI-H838	0.555	0.53	0.664	0.393	0.169	0.248	0.307	0.219	0.283	0.345	0.467	0.44	0.478	0.563	0.464	0.229	0.276	0.295	0.265	0.203
PC-14	0.681	0.651	0.805	0.198	0.123	0.273	0.266	0.248	0.0361	0.223	0.295	0.194	0.215	0.166	0.209	0.661	0.564	0.676	0.416	0.222
NCI-H358	0.133	0.117	0.151	0.125	0.125	0.167	0.165	0.13	0.143	0.173	0.237	0.216	0.191	0.202	0.21	0.116	0.141	0.108	0.102	0.0813
NCI-H1915	0.287	0.294	0.248	0.306	0.283	0.425	0.316	0.284	0.357	0.3	0.256	0.249	0.269	0.253	0.256	0.403	0.439	0.45	0.417	0.425
201T	0.745	0.713	0.706	0.735	0.724	0.609	0.614	0.476	0.623	0.605	0.876	0.864	0.841	0.904	0.77	0.833	0.97	0.971	0.976	0.871
NCI-H1437	0.362	0.473	0.424	0.382	0.285	0.378	0.46	0.307	0.453	0.478	0.55	0.59	0.62	0.635	0.55	–	0.402	0.37	0.357	0.228
A-427	0.785	0.794	0.794	0.696	0.733	0.783	0.685	0.568	0.704	0.671	0.57	0.564	0.545	0.562	0.507	0.232	0.2	0.213	0.509	0.218
